Measured values as given in the supplement of paper PMC12325586.

System: MIA PaCa-2
[1] = OFD1 knockdown: no (no doxycycline)
[2] = OFD1 knockdown: yes (Tet-on shOFD1, 100 ng/mL doxycycline)

Row | Compound | IC50 cell viability [1] [µM] | IC50 cell viability [2] [µM]
1 | CN1CCN(c2nc(C3=C(c4c[nH]c5ccccc45)C(=O)NC3=O)c3ccccc3n2)CC1 [S2791] | 22.1 | 20.1
2 | O=c1sn(-c2cccc3ccccc23)c(=O)n1Cc1ccccc1 [S2823] | 17.9 | 17.7
3 | N#CC[C@H](C1CCCC1)n1cc(-c2ncnc3[nH]ccc23)cn1 [S2902] | 19.6 | 17.9
4 | Cc1ccc(Nc2nccc(N(C)c3ccc4c(C)n(C)nc4c3)n2)cc1S(N)(=O)=O [S3012] | 14 | 12.6
5 | Cc1c(C(=O)NN2CCCCC2)nn(-c2ccc(Cl)cc2Cl)c1-c1ccc(Cl)cc1 [S3021] | 19 | 17.7
6 | O=C1CN2Cc3c(ccc(Cl)c3Cl)N=C2N1 [S3172] | 8.82 | 8.26
7 | N[C@@H](CC(=O)N1CCn2c(nnc2C(F)(F)F)C1)Cc1cc(F)c(F)cc1F [S4002] | 21.9 | 21.2
8 | Nc1nc(CC(=O)Nc2ccc(CCNC[C@H](O)c3ccccc3)cc2)cs1 [S4009] | 27 | 23.9
9 | O=C(O)CCCc1ccc(N(CCCl)CCCl)cc1 [S4288] | 21.7 | 19.3

Results, then the molecule that gave them:

Row | IC50 cell viability [1] [µM] | IC50 cell viability [2] [µM] | Compound
10 | 7.47 | 5.94 | Cc1cc(C)c2c(c1)[C@@H](N(Cc1cc(C(F)(F)F)cc(C(F)(F)F)c1)c1nnn(C)n1)CCCN2C[C@H]1CC[C@H](C(=O)O)CC1 [S2925]
11 | 3.36 | 3.39 | COc1cccc2c1C(=O)c1c(O)c3c(c(O)c1C2=O)C[C@@](O)(C(C)=O)C[C@@H]3O[C@H]1C[C@H](N)[C@H](O)[C@H](C)O1 [S3035]
12 | 51.2 | 49.6 | CC(=O)OCC(=O)[C@@]1(O)[C@H](C)C[C@H]2[C@@H]3CCC4=CC(=O)C=C[C@]4(C)[C@@]3(F)[C@@H](O)C[C@@]21C [S3124]
13 | 3.57 | 3.44 | CCN(CC)C(=O)/C(C#N)=C/c1cc(O)c(O)c([N+](=O)[O-])c1 [S3147]
14 | 5.3 | 4.97 | COc1cc2nccc(Oc3ccc(NC(=O)C4(C(=O)Nc5ccc(F)cc5)CC4)cc3)c2cc1OC [S4001]
15 | 8.25 | 7.73 | Nc1ccc(C(=O)O)c(O)c1 [S4073]
16 | 3.46 | 3.12 | CCC1=C[C@@H]2CN(C1)Cc1c([nH]c3ccccc13)[C@@](C(=O)OC)(c1cc3c(cc1OC)N(C)[C@H]1[C@@](O)(C(=O)OC)[C@H](OC(C)=O)[C@]4(CC)C=CCN5CC[C@]31[C@@H]54)C2 [S4269]
17 | 21.9 | 20.3 | CC[C@H](NC(=O)[C@H](C)NC)C(=O)N1C[C@@H](O)C[C@H]1Cc1c(-c2[nH]c3cc(F)ccc3c2C[C@@H]2C[C@H](O)CN2C(=O)[C@H](CC)NC(=O)[C@H](C)NC)[nH]c2cc(F)ccc12 [S7015]
18 | 11.4 | 9.5 | C=CC(=O)Nc1cc(Nc2nccc(-c3cn(C)c4ccccc34)n2)c(OC)cc1N(C)CCN(C)C [S7297]
19 | 13.1 | 12.1 | CC1(C)CCC(CN2CCN(c3ccc(C(=O)NS(=O)(=O)c4ccc(NCC5CCOCC5)c([N+](=O)[O-])c4)c(Oc4cnc5[nH]ccc5c4)c3)CC2)=C(c2ccc(Cl)cc2)C1 [S8048]
